Results from patent US20020137929A1, “1 - (3-heterocyclylphenyl) isothiourea, -isourea, -guanidine and -amidine herbicidal agents” (Intellectual Property Department, BASF Aktiengesellschaft, priority 1998, published 2002).

Experiments:
CYPIR (Rice Flatsedge) = assay: Preemergence weed control under flooded paddy conditions; format: in vivo, Cyperus iria; conditions: rated 3-4 weeks after treatment
Procedure, shortened: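 Ratings on a 0-9 visual scale cover stand, vigor, malformation, size, chlorosis and overall appearance relative to a control, taken three to four weeks post-treatment. Application was into flood water over freshly sown silt loam at roughly 0.0313 to 0.500 kg/ha.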

AMBEL (Ragweed, Common) = assay: Preemergence herbicidal evaluation; format: in vivo, Ambrosia artemisifolia; conditions: rated 4-5 weeks after treatment
Procedure, shortened: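 Each species is sown separately in potting soil over roughly an inch of soil before any emergence. The soil surface then receives an aqueous acetone spray delivering about 0.0156 to 0.500 kg/ha of compound. After four to five weeks, injury is scored from 0 to 9 relative to a control.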

ORYSAT (Rice, Tebonnet) [1] = assay: Rice tolerance to post-transplant applications, flooded paddy conditions (Table III); format: in vivo, Oryza sativa, (L.) Tebonnet; conditions: post-transplant rice, flooded paddy, rated 3-4 weeks after treatment
Procedure, shortened: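 Injury scored 0-9 by eye against untreated control, judging stand, vigor, malformation, size and chlorosis, three to four weeks after treatment. Compound in 50/50 aqueous/acetone, about 0.0313 to 0.500 kg/ha, was applied to paddy water (1.5 to 3 cm depth) three days after transplanting paired ten-day-old Tebonnet rice seedlings.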

[2] = tested on: IPOSS (Morningglory Spp.); assay: Preemergence herbicidal evaluation; format: in vivo, Ipomoea Spp.; conditions: rated 4-5 weeks after treatment
Text: (§1) Results of herbicide evaluation are expressed on a rating scale (0-9). The scale is based upon a visual observation of plant stand, vigor, malformation, size, chlorosis and overall plant appearance as compared with a control.
(§2) The preemergence herbicidal activity of the test compounds of the present invention is exemplified by the following tests in which the seeds of a variety of monocotyledonous and dicotyledonous plants are separately mixed with potting soil and planted on top of approximately one inch of soil in separate pint cups. After planting, the cups are sprayed with the selected aqueous acetone solution containing test compound in sufficient quantity to provide the equivalent of about 0.0156 to 0.500 kg per hectare of test compound per cup. The treated cups are then placed on greenhouse benches, watered and cared for in accordance with conventional greenhouse procedures. From four to five weeks after treatment, the tests are terminated and each cup is examined and rated according to the rating system provided in Example 37.
(§3) The compounds evaluated are reported by compound number given in Example 37.

ORYSAT (Rice, Tebonnet) [3] = assay: Rice tolerance to post-transplant applications, flooded paddy conditions (Table IV); format: in vivo, Oryza sativa, (L.) Tebonnet; conditions: flooded paddy, post-transplant rice, 3-4 weeks after treatment
Procedure, shortened: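 Post-transplant paddy test in greenhouse: a.i. about 0.0313 to 0.500 kg/ha applied into the flood water. Plants are rated 0-9 for overall appearance relative to control three to four weeks on.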

[4] = tested on: IPOSS (Morningglory Spp.); assay: Postemergence herbicidal evaluation; format: in vivo, Ipomoea Spp.
Experimental: (§4) In the tests, seedling plants are grown in jiffy flats for about two weeks. The test compounds are dispersed in 50/50 acetone/water mixtures containing 0.5% TWEEN®20, a polyoxyethylene sorbitan monolaurate surfactant of Atlas Chemical Industries, in sufficient quantities to provide the equivalent of about 0.0156 kg to 0.500 kg per hectare of active compound when applied to the plants through a spray nozzle operating at 40 psi for a predetermined time. After spraying, the plants are placed on greenhouse benches and are cared for in accordance with conventional greenhouse procedures. From four to five weeks after treatment, the seedling plants are examined and rated according to the rating system set forth below. Where more than one test is involved for a given compound, the data are averaged.
(§5) Plant species employed in these evaluations are reported by header abbreviation, common name and scientific name.
as §1

MOOVA (Monochoria) = assay: Postemergence weed control under flooded paddy conditions; format: in vivo, Monochoria vaginalis; conditions: postemergence weeds, 3-4 weeks after treatment
Procedure, shortened: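 Flood-water application, about 0.0313–0.500 kg/ha a.i. in aqueous/acetone 50/50 v/v; water depth 1.5–3 cm throughout. Weeds 3–5 cm, rice 1.5–2.5 leaf. Greenhouse; 0–9 visual rating vs control at 3–4 wk.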

GLXMA (Soybean) [5] = assay: Preemergence herbicidal evaluation; format: in vivo, Glycine max; conditions: rated 4-5 weeks after treatment
Text: as §1, §2, §3

GLXMA (Soybean) [6] = assay: Postemergence herbicidal evaluation; format: in vivo, Glycine max
Experimental: as §4, §5, §1

O=C1CSC(=Nc2cc(N3C(=O)C4=C(CCCC4)C3=O)c(F)cc2Cl)N1c1ccccc1 [Compound 3, N-{4-chloro-2-fluoro-5-[(4-oxo-3-phenyl-2-thiazolidinylidene)amino]phenyl}-1-cyclohexene-1,2-dicarboximide]
Herbicidal rating CYPIR (CYPIR (Rice Flatsedge); 0.0625 kg/ha): 0.0 | Herbicidal rating CYPIR (CYPIR (Rice Flatsedge); 0.1250 kg/ha): 0.0 | Herbicidal rating CYPIR (CYPIR (Rice Flatsedge); 0.2500 kg/ha): 0.0 | Herbicidal rating CYPIR (CYPIR (Rice Flatsedge); 0.5000 kg/ha): 0.0 | AMBEL preemergence herbicidal rating (AMBEL (Ragweed, Common); rate 0.0313 kg/ha): 0.0 | AMBEL preemergence herbicidal rating (AMBEL (Ragweed, Common); rate 0.0625 kg/ha): 0.0 | AMBEL preemergence herbicidal rating (AMBEL (Ragweed, Common); rate 0.1250 kg/ha): 2.0 | AMBEL preemergence herbicidal rating (AMBEL (Ragweed, Common); rate 0.2500 kg/ha): 2.0 | AMBEL preemergence herbicidal rating (AMBEL (Ragweed, Common); rate 0.5000 kg/ha): 7.0 | Herbicidal rating ORYSAT (rice tolerance) (ORYSAT (Rice, Tebonnet) [1]; 0.0625 kg/ha): 0.0 | Herbicidal rating ORYSAT (rice tolerance) (ORYSAT (Rice, Tebonnet) [1]; 0.1250 kg/ha): 2.0 | Herbicidal rating ORYSAT (rice tolerance) (ORYSAT (Rice, Tebonnet) [1]; 0.2500 kg/ha): 2.0 | Herbicidal rating ORYSAT (rice tolerance) (ORYSAT (Rice, Tebonnet) [1]; 0.5000 kg/ha): 3.0 | IPOSS preemergence herbicidal rating ([2]; rate 0.0313 kg/ha): 0.0 | IPOSS preemergence herbicidal rating ([2]; rate 0.0625 kg/ha): 0.0 | IPOSS preemergence herbicidal rating ([2]; rate 0.1250 kg/ha): 0.0 | IPOSS preemergence herbicidal rating ([2]; rate 0.2500 kg/ha): 2.0 | IPOSS preemergence herbicidal rating ([2]; rate 0.5000 kg/ha): 4.0 | Herbicidal rating ORYSAT (rice tolerance) (ORYSAT (Rice, Tebonnet) [3]; rate 0.0625 kg/ha): 0.0 | Herbicidal rating ORYSAT (rice tolerance) (ORYSAT (Rice, Tebonnet) [3]; rate 0.1250 kg/ha): 1.0 | Herbicidal rating ORYSAT (rice tolerance) (ORYSAT (Rice, Tebonnet) [3]; rate 0.2500 kg/ha): 1.0 | Herbicidal rating ORYSAT (rice tolerance) (ORYSAT (Rice, Tebonnet) [3]; rate 0.5000 kg/ha): 2.0 | IPOSS herbicidal rating ([4]; rate 0.0313 kg/ha): 2.0 | IPOSS herbicidal rating ([4]; rate 0.0625 kg/ha): 4.0 | IPOSS herbicidal rating ([4]; rate 0.1250 kg/ha): 9.0 | IPOSS herbicidal rating ([4]; rate 0.2500 kg/ha): 8.0 | IPOSS herbicidal rating ([4]; rate 0.5000 kg/ha): 9.0 | Herbicidal rating MOOVA (MOOVA (Monochoria); rate 0.0625 kg/ha): 1.0 | Herbicidal rating MOOVA (MOOVA (Monochoria); rate 0.1250 kg/ha): 4.5 | Herbicidal rating MOOVA (MOOVA (Monochoria); rate 0.2500 kg/ha): 4.5 | Herbicidal rating MOOVA (MOOVA (Monochoria); rate 0.5000 kg/ha): 5.5

CN1C(=O)C(F)SC1=Nc1cc(N2C(=O)C3=C(CCCC3)C2=O)c(F)cc1Cl (stereo not shown) [Compound 5, N-{4-chloro-2-fluoro-5-[(5-fluoro-3-methyl-4-oxo-2-thiazolidinylidene)amino]phenyl}-1-cyclohexene-1,2-dicarboximide]
Herbicidal rating CYPIR (CYPIR (Rice Flatsedge); 0.1250 kg/ha): 0.0 | Herbicidal rating CYPIR (CYPIR (Rice Flatsedge); 0.2500 kg/ha): 0.0 | Herbicidal rating CYPIR (CYPIR (Rice Flatsedge); 0.5000 kg/ha): 0.0 | AMBEL preemergence herbicidal rating (AMBEL (Ragweed, Common); rate 0.0625 kg/ha): 0.0 | AMBEL preemergence herbicidal rating (AMBEL (Ragweed, Common); rate 0.1250 kg/ha): 0.0 | AMBEL preemergence herbicidal rating (AMBEL (Ragweed, Common); rate 0.2500 kg/ha): 0.0 | AMBEL preemergence herbicidal rating (AMBEL (Ragweed, Common); rate 0.5000 kg/ha): 0.0 | IPOSS preemergence herbicidal rating ([2]; rate 0.0625 kg/ha): 0.0 | IPOSS preemergence herbicidal rating ([2]; rate 0.1250 kg/ha): 0.0 | IPOSS preemergence herbicidal rating ([2]; rate 0.2500 kg/ha): 0.0 | IPOSS preemergence herbicidal rating ([2]; rate 0.5000 kg/ha): 0.0 | GLXMA preemergence herbicidal rating (GLXMA (Soybean) [5]; rate 0.0625 kg/ha): 1.0 | GLXMA preemergence herbicidal rating (GLXMA (Soybean) [5]; rate 0.1250 kg/ha): 1.0 | GLXMA preemergence herbicidal rating (GLXMA (Soybean) [5]; rate 0.2500 kg/ha): 2.0 | GLXMA preemergence herbicidal rating (GLXMA (Soybean) [5]; rate 0.5000 kg/ha): 2.0 | GLXMA herbicidal rating (GLXMA (Soybean) [6]; rate 0.0157 kg/ha): 3.0 | GLXMA herbicidal rating (GLXMA (Soybean) [6]; rate 0.0313 kg/ha): 3.0 | GLXMA herbicidal rating (GLXMA (Soybean) [6]; rate 0.0625 kg/ha): 3.0 | GLXMA herbicidal rating (GLXMA (Soybean) [6]; rate 0.1250 kg/ha): 4.0 | GLXMA herbicidal rating (GLXMA (Soybean) [6]; rate 0.2500 kg/ha): 4.0 | GLXMA herbicidal rating (GLXMA (Soybean) [6]; rate 0.5000 kg/ha): 4.5 | IPOSS herbicidal rating ([4]; rate 0.0157 kg/ha): 0.0 | IPOSS herbicidal rating ([4]; rate 0.0313 kg/ha): 1.0 | IPOSS herbicidal rating ([4]; rate 0.0625 kg/ha): 2.0 | IPOSS herbicidal rating ([4]; rate 0.1250 kg/ha): 4.0 | IPOSS herbicidal rating ([4]; rate 0.2500 kg/ha): 9.0 | IPOSS herbicidal rating ([4]; rate 0.5000 kg/ha): 9.0 | Herbicidal rating MOOVA (MOOVA (Monochoria); rate 0.1250 kg/ha): 1.0 | Herbicidal rating MOOVA (MOOVA (Monochoria); rate 0.2500 kg/ha): 2.0 | Herbicidal rating MOOVA (MOOVA (Monochoria); rate 0.5000 kg/ha): 4.0
